US20250145589A1, “PYRIDINE DERIVATIVE AND USE THEREOF” (SICHUAN HUIYU PHARMACEUTICAL CO., LTD., priority 2021, published 2025)
Where two headings read alike, the source gives them in different places.

What was measured:
PI3Kα = PI3Kα (Homo sapiens (Human), UniProt P42336); assay: Inhibition of PI3Kα efficacy assay (ADP-Glo kinase assay); format: biochemical; conditions: read-out: PI3Kα inhibitory activity (IC50)
Method: Inhibition of PI3Kα Efficacy assay The ADP-Glo™ kinase assay was used to assess the inhibition of PI3Kα with our compounds. The utilized proteins and assay reagents were obtained from the ADP-Glo™ Kinase Assay Kit (Promega). Initially, a 2 mM stock solution of the test compound (dissolved in DMSO) was serially diluted in five-fold concentrations using DMSO to obtain eight working solutions 1 (200′). […] Subsequently, 2 μL of 2.5×PI and ATP solution mixture were added to each well, mixed, and incubated at RT for 60 minutes. Then, 5 μL of ADP-Glo (containing 10 mM MgCl2) reagent was added to each well, mixed, and incubated at RT for 40 minutes. Finally, 10 μL of the Kinase Detection Reagent was added to each well, mixed, and incubated at RT for 40 minutes. […] Data were analyzed using GraphPad Prism with log(inhibitor) vs. response—Variable Slope(four parameters) fitting calculations for […]. (Note: The negative control refers to the group without inhibitor, and the blank control refers to the group without enzyme.) The data were presented in Tables 1 to 4.

PI3Kδ = PI3Kδ (Homo sapiens (Human), UniProt O00329); assay: Inhibition of PI3Kδ efficacy assay (ADP-Glo kinase assay); format: biochemical; conditions: read-out: PI3Kδ inhibitory activity (IC50)
Method: Test Example 2: Inhibition of PI3Kδ Efficacy assay The ADP-Glo™ kinase assay was used to assess the inhibition of PI3Kδ with our compounds. The utilized proteins and assay reagents were obtained from the ADP-Glo™ Kinase Assay Kit (Promega). Initially, a 2 mM stock solution of the test compound (dissolved in DMSO) was serially diluted in five-fold concentrations using DMSO to obtain eight working solutions 1 (200×) Subsequently, each of the eight working solutions 1 was further diluted in a 20-fold gradient by adding 5 μL into 95 μL of ddH2O, resulting in eight working solutions 2 (10×). […] Subsequently, 2 μL of 2.5×PI and ATP solution mixture were added to each well, mixed, and incubated at RT for 60 minutes. Then, 5 μL of ADP-Glo (containing 10 mM MgCl2) reagent was added to each well, mixed, and incubated at RT for 40 minutes. Finally, 10 μL of the Kinase Detection Reagent was added to each well, mixed, and incubated at RT for 40 minutes. Luminescence values were recorded using a multi-mode microplate reader with luminescence channel settings, and the inhibitory rate was calculated using the following formula: [formula] Data were analyzed using GraphPad Prism with log(inhibitor) vs. response—Variable Slope(four parameters) fitting calculations for IC50 values.

[1] = test system: NCI-H358 cells (KRAS G12C mutant); assay: NCI-H358 cell proliferation inhibition (CellTiter-Glo); format: cell-based; conditions: Homo sapiens, NCI-H358, 72 h; H358 cells (G12C mutation), 3 days, Table 6; read-out: NCI-H358 (IC50)
Method: The CellTiter-Glo®, assay was used to detect the number of viable cells, in order to evaluate the anti-proliferation efficacy of compounds. […] The compounds were serially diluted 5-fold in DMSO to obtain 8 concentrations, and then further diluted with RPMI-640 (10% FBS) cell culture medium to obtain the working solutions (5′), 20 μL of each working solution was added to the cell culture supernatant in each well, and the plate was further incubated for 3 days at 37° C. with 5% CO2. The plate was then equilibrated with CellTiter-Glo® reagent at room temperature (25° C.) for 10-30 minutes. After aspirating 50 μL of the medium, 50 μL of CellTiter-Glo® reagent was added. The cells were thoroughly mixed with the CellTiter-Glo® reagent using a microplate shaker for 2 minutes, and then incubated at room temperature for 10 minutes. The 96-well plate was placed in a multi-mode microplate reader to record the luminescence values (RLU). The inhibition rate was calculated through the following equation: [formula] Data were analyzed using GraphPad Prism for IC50 values (Note: The negative control refers to the group without inhibitor).

Chain of PI3Kδ (O00329 whole entry): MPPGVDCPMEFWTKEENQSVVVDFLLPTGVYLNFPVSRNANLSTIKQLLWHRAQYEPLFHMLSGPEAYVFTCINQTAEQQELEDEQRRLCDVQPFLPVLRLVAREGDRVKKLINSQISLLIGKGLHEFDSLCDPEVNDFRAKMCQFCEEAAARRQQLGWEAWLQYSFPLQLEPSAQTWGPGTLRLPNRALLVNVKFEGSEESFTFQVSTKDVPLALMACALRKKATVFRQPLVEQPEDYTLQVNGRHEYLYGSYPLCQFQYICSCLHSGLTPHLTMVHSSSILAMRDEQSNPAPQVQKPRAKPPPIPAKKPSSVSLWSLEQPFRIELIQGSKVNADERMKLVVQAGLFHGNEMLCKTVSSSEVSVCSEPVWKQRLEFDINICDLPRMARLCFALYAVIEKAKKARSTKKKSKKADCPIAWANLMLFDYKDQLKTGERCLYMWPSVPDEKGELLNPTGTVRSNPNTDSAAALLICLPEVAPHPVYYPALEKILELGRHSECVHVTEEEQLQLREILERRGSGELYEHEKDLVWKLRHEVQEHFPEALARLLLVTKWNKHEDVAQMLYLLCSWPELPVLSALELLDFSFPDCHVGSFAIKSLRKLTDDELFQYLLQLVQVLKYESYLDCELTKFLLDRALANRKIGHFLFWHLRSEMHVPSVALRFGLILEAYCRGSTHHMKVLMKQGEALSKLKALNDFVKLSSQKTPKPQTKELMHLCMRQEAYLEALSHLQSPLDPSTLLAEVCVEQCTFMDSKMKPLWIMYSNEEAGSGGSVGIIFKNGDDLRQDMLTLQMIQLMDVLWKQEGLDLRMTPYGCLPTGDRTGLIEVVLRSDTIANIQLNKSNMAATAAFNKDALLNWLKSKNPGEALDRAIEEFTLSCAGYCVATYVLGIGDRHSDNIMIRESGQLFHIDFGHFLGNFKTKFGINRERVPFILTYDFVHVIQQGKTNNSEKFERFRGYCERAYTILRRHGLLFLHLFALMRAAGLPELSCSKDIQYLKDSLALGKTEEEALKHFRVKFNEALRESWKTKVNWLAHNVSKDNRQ
Chain of PI3Kδ (P27986 whole entry partner): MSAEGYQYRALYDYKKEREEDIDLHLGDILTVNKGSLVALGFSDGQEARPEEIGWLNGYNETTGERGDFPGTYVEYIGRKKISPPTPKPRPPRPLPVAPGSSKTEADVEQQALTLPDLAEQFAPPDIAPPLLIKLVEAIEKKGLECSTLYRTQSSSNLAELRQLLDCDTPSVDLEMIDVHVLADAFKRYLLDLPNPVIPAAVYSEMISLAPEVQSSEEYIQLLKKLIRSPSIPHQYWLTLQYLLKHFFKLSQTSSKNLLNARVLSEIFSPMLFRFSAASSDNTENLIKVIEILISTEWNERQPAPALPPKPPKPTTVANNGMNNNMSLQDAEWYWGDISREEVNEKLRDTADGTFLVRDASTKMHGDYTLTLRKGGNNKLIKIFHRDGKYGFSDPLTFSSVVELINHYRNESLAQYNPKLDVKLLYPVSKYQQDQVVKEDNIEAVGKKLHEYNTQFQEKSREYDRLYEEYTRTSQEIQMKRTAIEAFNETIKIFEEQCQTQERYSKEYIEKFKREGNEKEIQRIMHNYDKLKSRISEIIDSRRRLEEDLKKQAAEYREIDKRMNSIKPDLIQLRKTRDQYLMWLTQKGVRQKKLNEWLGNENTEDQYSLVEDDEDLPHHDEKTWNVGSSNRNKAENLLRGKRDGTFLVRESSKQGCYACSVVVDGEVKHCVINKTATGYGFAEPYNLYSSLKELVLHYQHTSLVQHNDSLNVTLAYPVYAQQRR
Chain of PI3Kα (P42336 whole entry): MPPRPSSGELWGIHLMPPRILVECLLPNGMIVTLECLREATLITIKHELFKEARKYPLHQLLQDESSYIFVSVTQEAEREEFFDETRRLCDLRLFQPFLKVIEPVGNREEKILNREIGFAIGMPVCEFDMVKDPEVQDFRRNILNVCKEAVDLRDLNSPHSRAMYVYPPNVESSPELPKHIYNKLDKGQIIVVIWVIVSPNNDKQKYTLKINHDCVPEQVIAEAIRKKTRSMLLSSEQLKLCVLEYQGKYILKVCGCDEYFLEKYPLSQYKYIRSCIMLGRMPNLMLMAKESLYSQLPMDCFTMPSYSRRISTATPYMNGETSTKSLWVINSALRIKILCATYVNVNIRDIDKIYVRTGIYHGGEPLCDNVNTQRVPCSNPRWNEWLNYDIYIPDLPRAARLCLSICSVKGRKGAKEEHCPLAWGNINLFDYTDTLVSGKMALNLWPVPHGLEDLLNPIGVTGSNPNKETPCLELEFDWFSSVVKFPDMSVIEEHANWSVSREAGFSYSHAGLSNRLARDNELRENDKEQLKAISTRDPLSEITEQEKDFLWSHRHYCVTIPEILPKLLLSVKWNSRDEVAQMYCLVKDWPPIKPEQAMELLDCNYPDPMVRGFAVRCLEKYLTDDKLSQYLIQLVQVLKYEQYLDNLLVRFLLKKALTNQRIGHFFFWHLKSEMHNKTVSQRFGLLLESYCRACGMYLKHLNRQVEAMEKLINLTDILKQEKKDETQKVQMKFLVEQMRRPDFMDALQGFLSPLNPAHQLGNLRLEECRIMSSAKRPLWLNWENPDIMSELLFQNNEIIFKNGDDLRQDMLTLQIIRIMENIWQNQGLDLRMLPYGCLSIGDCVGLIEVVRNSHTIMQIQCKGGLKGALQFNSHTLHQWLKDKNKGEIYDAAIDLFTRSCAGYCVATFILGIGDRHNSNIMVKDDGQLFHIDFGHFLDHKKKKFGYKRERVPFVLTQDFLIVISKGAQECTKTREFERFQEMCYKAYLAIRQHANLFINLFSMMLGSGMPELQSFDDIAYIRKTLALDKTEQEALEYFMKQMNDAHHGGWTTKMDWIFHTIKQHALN
Chain of PI3Kα (P27986 whole entry partner): as the sequence (P27986 whole entry partner) above

For `C=CC(=O)N1CCN(c2ncnc3ccc(-c4cnc(OC)c(N(C)S(=O)(=O)c5c(F)cccc5F)c4)cc23)CC1` [Example 82, N-(5-(4-(4-acryloylpiperazin-1-yl)quinazolin-6-yl)-2-methoxypyridin-3-yl)-2,6-difluoro-N-methylbenzenesulfonamide], the IC50 (PI3Kα; Table 2) was 89.9 nM and the IC50 (PI3Kδ; Table 2) was 75.6 nM.
`CC(=O)/C=C/C(=O)N1CCN(c2ncnc3ccc(-c4cncc(NS(=O)(=O)c5ccc(F)cc5F)c4)cc23)CC1` [Example 28, (E)-2,4-difluoro-N-(5-(4-(4-(4-oxopent-2-enoyl)piperazin-1-yl)quinazolin-6-yl)pyridin-3-yl)benzenesulfonamide] gave an IC50 (PI3Kα; Table 1) of 1.8 nM and an IC50 (PI3Kδ; Table 1) of 49.7 nM.
For `C=CC(=O)N1CCN(c2nc(N)nc3ccc(-c4cnc(OC)c(NS(=O)(=O)c5ccc(F)cc5F)c4)cc23)CC1` [Example 30, N-(5-(4-(4-acryloylpiperazin-1-yl)-2-aminoquinazolin-6-yl)-2-methoxypyridin-3-yl)-2,4-difluorobenzenesulfonamide], the IC50 (PI3Kα; Table 1) was 430 nM and the IC50 (PI3Kδ; Table 1) was 1840 nM.
Compound `COc1ncc(-c2nc(N3CCOCC3)nc3c(CN4CCC(C(C)(C)O)CC4)cc(F)cc23)cc1NS(C)(=O)=O` [Linperlisib, reference compound] has an IC50 (PI3Kδ; Table 1) of 18 nM.
For `CNc1ncc(-c2ccc3ncnc(N4CCN(C(=O)/C=C/C(C)=O)CC4)c3c2)cc1NS(=O)(=O)c1ccc(F)cc1F` [Example 105, (E)-2,4-difluoro-N-(2-(methylamino)-5-(4-(4-(4-oxopent-2-enoyl)piperazin-1-yl)quinazolin-6-yl)pyridin-3-yl)benzenesulfonamide], the IC50 (PI3Kα; Table 2) was 8.6 nM and the IC50 (PI3Kδ; Table 2) was 38.5 nM.
Work on `C=CC(=O)N1CCN(c2ncnc3ccc(-c4cnc(OC)c(NS(=O)(=O)c5ccc(Cl)s5)c4)cc23)CC1` [Example 37, N-(5-(4-(4-acryloylpiperazin-1-yl)quinazolin-6-yl)-2-methoxypyridin-3-yl)-5-chlorothiophene-2-sulfonamide] yielded an IC50 (PI3Kα; Table 1) of 1.3 nM and an IC50 (PI3Kδ; Table 1) of 20.1 nM.
With `CCOc1c([C@H](C)n2nc(C)c3c(N)ncnc32)cc(Cl)c(F)c1[C@@H]1CNC(=O)C1` [Parsaclisib, reference compound] the IC50 (PI3Kδ; Table 2) was 8 nM, the IC50 (PI3Kδ; Table 3) was 6 nM and the IC50 (PI3Kδ; Table 4) was 4 nM.
`C=CC(=O)N1CCN(c2nc(C#N)nc3ccc(-c4cnc(OC)c(NS(=O)(=O)c5ccc(F)cc5F)c4)cc23)CC1` [Example 31, N-(5-(4-(4-acryloylpiperazin-1-yl)-2-cyanoquinazolin-6-yl)-2-methoxypyridin-3-yl)-2,4-difluorobenzenesulfonamide] showed an IC50 (PI3Kα; Table 1) of 149 nM and an IC50 (PI3Kδ; Table 1) of 336 nM.
In the case of `C=CC(=O)N1CCN(c2nc(O)nc3ccc(-c4cnc(OC)c(NS(=O)(=O)c5ccc(F)cc5F)c4)cc23)CC1` [Example 32, N-(5-(4-(4-acryloylpiperazin-1-yl)-2-hydroxyquinazolin-6-yl)-2-methoxypyridin-3-yl)-2,4-difluorobenzenesulfonamide], the IC50 (PI3Kα; Table 1) is reported as 2260 nM and the IC50 (PI3Kδ; Table 1) is reported as > 5000 nM.
For `C=CC(=O)N1CCN(c2ncnc3ccc(-c4cncc(NS(=O)(=O)c5ccc(F)cc5F)c4)cc23)CC1` [Example 27, N-(5-(4-(4-acryloylpiperazin-1-yl)quinazolin-6-yl)pyridin-3-yl)-2,4-difluorobenzenesulfonamide], the IC50 (PI3Kα; Table 1) was 1.8 nM and the IC50 (PI3Kδ; Table 1) was 27.3 nM.
For `CC(=O)/C=C/C(=O)N1CCN(c2ncnc3ccc(-c4cnc(O)c(NS(=O)(=O)c5ccc(F)cc5F)c4)cc23)CC1` [Example 129, (E)-2,4-difluoro-N-(2-hydroxy-5-(4-(4-(4-oxopent-2-enoyl)piperazin-1-yl)quinazolin-6-yl)pyridin-3-yl)benzenesulfonamide], the IC50 (PI3Kδ; Table 2) was 142 nM.
Compound `C=CC(=O)N1CCN(c2ncnc3ccc(-c4cnc(OC5CCCC5)c(NS(=O)(=O)c5ccc(F)cc5F)c4)cc23)CC1` [Example 106, N-(5-(4-(4-acryloylpiperazin-1-yl)quinazolin-6-yl)-2-(cyclopentyloxy)pyridin-3-yl)-2,4-difluorobenzenesulfonamide] has an IC50 (PI3Kα; Table 2) of 117 nM and an IC50 (PI3Kδ; Table 2) of 117 nM.
`C=CC(=O)N1CCN(c2ncnc3ccc(-c4cnc(OC)c(NCc5ccc(F)cc5F)c4)cc23)CC1` [Example 126, 1-(4-(6-(5-((2,4-difluorobenzyl)amino)-6-methoxypyridin-3-yl)quinazolin-4-yl)piperazin-1-yl)prop-2-en-1-one] gave an IC50 (PI3Kα; Table 2) of 131 nM and an IC50 (PI3Kδ; Table 2) of 52.7 nM.
`C=C(F)C(=O)N1CCN(c2ncnc3ccc(-c4cnc(Cl)c(NS(=O)(=O)c5c(F)cccc5F)c4)cc23)CC1` [Example 85, N-(2-chloro-5-(4-(4-(2-fluoroacryloyl)piperazin-1-yl)quinazolin-6-yl)pyridin-3-yl)-2,6-difluorobenzenesulfonamide] gave an IC50 (PI3Kα; Table 2) of 2.8 nM and an IC50 [1] of 213 nM.
With `COC(=O)/C=C/C(=O)N1CCN(c2ncnc3ccc(-c4cnc(OC)c(NS(=O)(=O)c5ccc(F)cc5F)c4)cc23)CC1` [Example 67, methyl (E)-4-(4-(6-(5-((2,4-difluorophenyl)sulfonamido)-6-methoxy-pyridin-3-yl)quinazolin-4-yl)piperazin-1-yl)-4-oxobut-2-enoate] the IC50 (PI3Kα; Table 2) was 9.8 nM and the IC50 [1] was 24.2 nM.
`COc1ncc(-c2ccc3ncnc(N4CCC5(CC4)CN(C(=O)/C=C/C(C)=O)C5)c3c2)cc1NS(=O)(=O)c1c(F)cncc1F` [Example 163, (E)-3,5-difluoro-N-(2-methoxy-5-(4-(2-(4-oxopent-2-enoyl)-2,7-diazaspiro[3.5]nonan-7-yl)quinazolin-6-yl)pyridin-3-yl)pyridine-4-sulfonamide] was tested, and the IC50 (PI3Kα; Table 4) was 0.25 nM and the IC50 [1] was 190 nM.
In the case of `C=CC(=O)N1CCN(c2ncnc3ccc(-c4cnc(OC)c(NS(=O)(=O)c5c(F)cccc5F)c4)cc23)C[C@@H]1CC#N` [Example 117, (S)-N-(5-(4-(4-acryloyl-3-(cyanomethyl)piperazin-1-yl)quinazolin-6-yl)-2-methoxypyridin-3-yl)-2,6-difluorobenzenesulfonamide], the IC50 (PI3Kα; Table 2) is reported as 1.5 nM and the IC50 [1] is reported as 37 nM.
Compound `C=C(C(=O)N1CCN(c2ncnc3ccc(-c4cnc(OC)c(NS(=O)(=O)c5ccc(F)cc5F)c4)cc23)CC1)C(C)C` [Example 63, 2,4-difluoro-N-(2-methoxy-5-(4-(4-(3-methyl-2-methylene-butanoyl)piperazin-1-yl)quinazolin-6-yl)pyridin-3-yl) benzene-sulfonamide] has an IC50 (PI3Kα; Table 2) of 6.2 nM and an IC50 [1] of 19.6 nM.
In the case of `COc1ncc(-c2ccc3ncnc(N4CCN(C(=O)/C=C/C(C)=O)CC4)c3c2)cc1NS(=O)(=O)Nc1ccc(F)cc1F` [Example 128, N-(2,4-difluorophenyl)[(2-methoxy-5-(4-(4-[(2E)-4-oxopent-2-enoyl]piperazin-1-yl)quinazolin-6-yl)pyridin-3-yl)amino]sulfonamide], the IC50 (PI3Kα; Table 2) is reported as 21.7 nM and the IC50 [1] is reported as 278 nM.
Work on `COc1ncc(-c2ccc3ncnc(NC4CCN(C(=O)/C=C/C(C)=O)C4)c3c2)cc1NS(=O)(=O)c1ccc(F)cc1F` (centres unmarked) [Example 148, (E)-2,4-difluoro-N-(2-methoxy-5-(4-((1-(4-oxopent-2-enoyl)pyrrolidin-3-yl)amino)quinazolin-6-yl)pyridin-3-yl)benzenesulfonamide] yielded an IC50 (PI3Kα; Table 4) of 9.2 nM and an IC50 [1] of 638 nM.
`COc1ccc(-c2ccc3ncnc(N4CCN(C(=O)/C=C/C(C)=O)CC4)c3c2)cc1NS(=O)(=O)c1ccc(F)cc1F` [Example 95, (E)-2,4-difluoro-N-(2-methoxy-5-(4-(4-(4-oxopent-2-enoyl)piperazin-1-yl)quinazolin-6-yl)phenyl)benzenesulfonamide] was tested, and the IC50 (PI3Kα; Table 2) was 414 nM and the IC50 [1] was 576 nM.
